Legend:
HaCaT cells = test: Proton induced uptake (PIU) in HaCaT cells, FACS; assay type: cell-based, human; settings: for extent of PIU of dextran-FITC compared to normal cells: 25 μM added 10 minutes prior, pH 5.2 for 10 minutes, dextran-FITC 70 kDa; for effect of actin cytoskeleton modifier on rate of PIU of dextran-FITC: latrunculin-A 1 μM, cytochalasin-B 10 μM, wortmannin 1 μM, calyculin-A 50 nM, 15 minutes before, pH 5.25 10 minutes, 70 kD dextran-FITC 5 μM
Method: FIG. 6 is a chart showing PIU of molecules different by size and charge, in accordance with some embodiments of the invention. Hacat cultures were exposed to solutions of pH 5.2 or pH 7.4 for 5 minutes period, in the presence of different fluorescence molecules (All at 25 μM concentration). FACS analysis results (FL1, geometrical mean±SD) for the cell cultures exposed to pH 5.2 are presented as fold induction relative to results obtained for cells exposed to pH 7.4. This can be used, in some embodiments of the invention, to assess effect of molecule size and charge on uptake.
FIGS. 7A-7B are charts showing the comparison of PIU in adherent and suspended HaCaT cells, in accordance with some embodiments of the invention. For FIG. 7A, HaCaT cells were tested either at their adherent state, or following harvest at a suspended state. […] FACS analyses (FL1) in terms of geometrical mean±SD are presented as fold induction relative to the constitutive uptake at physiological pH 7.4. n=9 in 3 independent experiments. For FIG. 7B, HaCaT Cells were cultivated at low, medium or high cell density. […] The cultures were harvested and undergone FACS analyses (FL1) in terms of geometrical mean±SD and are presented as fold induction relative to the constitutive uptake of low density cultures. Statistical significance was tested against the confluent culture, n=9 in 3 independent experiments. In the charts, * indicates a t-test p<0.05; and ** indicates a t-test p<0.01. This can be used, in some embodiments of the invention, to assess effect of cell membrane rigidity and/or tissue structure on uptake.
FIGS. 12A-12B are a chart and images which show the relative change of PIU by modifiers of actin cytoskeleton organization, in accordance with some embodiments of the invention. […].

COS 5-7 cells [1] = test: Uptake after one minute of electric pulse train (EPT) in three-compartment device, FACS; assay type: cell-based, African green monkey; settings: in the presence of both 2 mM SAA and 1 mM DHA
Method: Exposure of cells to low-intensity trains of unipolar rectangular voltage pulses was carried in a three-compartment exposure set-up where the anode and cathode were connected to an electric pulse generator (Grass S44 Stimulator). The exposure set-up consisted of a rectangular chamber made from polystyrene, 15 mm long, 10 mm wide, with 0.5 cm^2 area platinum electrodes positioned on the extreme sides (see FIG. 15). The chamber is divided by two porous membranes (PolyEtherSulfon, 0.8 μm pores, 200 μm depth), into three distinct and equal compartments: anode, cathode and center ones. The electric field parameters applied were monitored on line by recording the voltage and the current (by means of a wide band current probe, Pearson) on an oscilloscope. Typically, a cell suspension (1*10^6 cells/ml) is exposed to a train of electric pulses consisting of unipolar rectangular pulses with duration of 180 μs, frequency of 500 Hz for the total time of exposure of one minute.
Flow cytometry analysis was carried out by FACSort (Becton @ Dickson, San Jose, Calif.), employing a 488-nm argon laser excitation. […] Ten thousand cells were examined for each sample and data were collected in the list mode. The analysis of flow cytometry data was performed using WINMDI 2.9 software (Joe Trotter, The Scripps Research Institute). For each sample the geometrical mean was calculated without including PI stained cells. Cell intensity was determined as fold of induction relative to cells' constitutive uptake.

COS 5-7 cells [2] = test: Intracellular oxidative stress (DCF fluorescence) after exposure to EPT, FACS; assay type: cell-based, African green monkey; settings: EPT 20V/cm
Text: FIG. 18 is a chart of intracellular oxidative stress in the presence of anti-oxidants in the extracellular and the intracellular compartments, in accordance with some embodiments of the invention. The intracellular oxidative stress measured by intracellular DCF fluorescent intensity following cell exposure to electric pulse train, analyzed by FACS (488/530 nm). Results are given as folds of geometrical mean±SD relative to the level of constitutive oxidative stress. Statistical t-test results: 2 mM SAA; p<0.05, 1 mM DHA; p<0.01.
Harvested cells were incubated with H2DCF-DA (20 μM for 90 minutes 5% CO2 at 37°). Following the loading process the cells were washed once with HBSS before exposure to EPT. H2DCF-DA is a non-fluorescent form of fluorescein, passively permeating into the cell where it is cleaved by cytosolic esterase to H2DCF. It gains its fluorescent properties when oxidized into DCF. DCF intensity was analyzed by FACS using the 530/30 nm channel.
The intracellular OS level was monitored by H2DCF, a non-fluorescent probe that is oxidized by radical hydroxyls into the fluorescent DCF form. Following the cells pre-loading with H2DCF, OS levels, as monitored by intracellular DCF fluorescence intensity, are elevated only in those cells suspended and exposed to EPT in the anode compartment (20V/cm, 200 mA/cm^2). […]

COS 5-7 cells [3] = test: Uptake after one minute of chemically induced low pH (HCl added to HBSS suspension), FACS; assay type: cell-based, African green monkey; settings: 50 mM
Method: The following tables show a connection between pH and current. […] The values in the tables are shown as folds relative to the uptake in cells unexposed to any of the treatments. […] The results are expected to be substantially independent of cell type and molecule used, except for a cell-specific change and a molecule specific change.
Cells (COS 5-7) were harvested, re-suspended in DMEM (1 mg/ml glucose, 5% FCS), and incubated (37°, 5% CO2) as designated by the experiment. For uploading the cells with either H2DCF-DA (20 μM) or Bis-DHA (1 mM) incubation lasted 90 minutes. When no pre-treatments were required, the cells were kept in the DMEM for 30 minutes. Following incubation, the cells were centrifuged at 400g for 1 min, the solution aspirated, and cells re-suspended in HBSS exposure media.
Exposure of cells to pulse acidification was through the addition of HCl to the HBSS suspension for 60 seconds, terminated by the addition of a three fold larger volume of DMEM-H.
Cell suspensions were centrifuged (400g for one minute), their solutions aspirated and they were re-suspended with 0.5 ml DMEM-H supplemented with 10u/ml dextranase (Sigma-Aldrich) for 10 minutes at RT. Cells were centrifuged again; their solution aspirated and they were re-suspended with 0.2 ml DMEM-H. PI (25 μg/ml) as a label for permeabilized cells and tryphan blue (0.01% w/v) as a fluorescence quenching agent for extracellular FITC (36) were added to each sample shortly before analysis
Flow cytometry analysis was carried out by FACSort (Becton @ Dickson, San Jose, Calif.), employing a 488-nm argon laser excitation. The green fluorescence of FITC was measured via 530/30 nm filter, the red fluorescence of PI was detected via a 585/42 nm filter. […] Ten thousand cells were examined for each sample and data were collected in the list mode. The analysis of flow cytometry data was performed using WINMDI 2.9 software (Joe Trotter, The Scripps Research Institute). For each sample the geometrical mean was calculated without including PI stained cells. Cell intensity was determined as fold of induction relative to cells' constitutive uptake.
After one minute incubation, cell suspensions were immediately diluted with 3 fold larger volume of cold buffered DMEM to restore pH to a normal pH of 7.5.

[4] = 2 mM added to medium prior to EPT (20V/cm, 200 mA/cm^2)
Method: In order to determine the EPT induced oxidative stress in the extracellular media, TMB was employed, a colorless solution that transforms into blue when oxidized. TMB was added to the media before exposure to EPT. […] Light absorbance was measured using Tecan GENios plate reader at 450 nm. […] In order to moot this possibility, OS was examined in the three-compartment device, monitored by the color conversion of TMB.

## N#CC(C#N)=NNc1cccc(Cl)c1 [CCCP]
HaCaT cells
  extent of PIU of dextran-FITC compared to normal cells: higher

## O=C1OC2C(O)COC23OC24OCC(O)C2OC(=O)C4(O)OC13O (stereo not drawn) [DHA, Bis-Dehydroascorbic acid]
COS 5-7 cells [1]
  effect on EPT induced uptake of dextran-FITC: only a minor decrease
COS 5-7 cells [2]; cells pre-loaded (1 mM, 90 minutes), 200 mA/cm^2
  effect on EPT induced increase of DCF fluorescent intensity: sufficient to abolish

## [Cl-].[Na+] [NaCl]
COS 5-7 cells [3]
  change in uptake when HCl is replaced by the same concentration of salt (osmolarity control): no change in uptake was observed

## O=C(CCc1ccc(O)cc1)c1c(O)cc(O)cc1O [Phloretin]
HaCaT cells
  extent of PIU of dextran-FITC compared to normal cells: higher

## O=C1O[C@H]([C@@H](O)CO)C(O)=C1O.[Na] [SAA, Sodium ascorbic acid]
COS 5-7 cells [1]
  effect on EPT induced uptake of dextran-FITC: only a minor decrease
[4]
  effect on TMB oxidation during electric exposure: prevented its oxidation
COS 5-7 cells [2]; 2 mM in external medium, 200 mA/cm^2, anode compartment
  decline of intracellular OS (DCF fluorescence): 66%

## COC[C@@H]([C@H](O)[C@H](O)C(=O)NCC[C@H](C)c1nc(/C=C/C[C@@H]2O[C@]3(C[C@@H](O)[C@@H]2C)O[C@H]([C@H](C[C@H](O)[C@H](C)[C@H](O)[C@H](C)/C=C(C)/C(C)=C/C=C/C(C)=C\C#N)OC)[C@H](OP(=O)(O)O)C3(C)C)co1)N(C)C [calyculin-A]
HaCaT cells
  effect of actin cytoskeleton modifier on rate of PIU of dextran-FITC: relatively minute impact on PIU increase

## C=C1[C@@H](C)[C@H]2[C@H](Cc3ccccc3)NC(=O)[C@]23OC(=O)/C=C/[C@H](O)CCC[C@@H](C)C/C=C/[C@H]3[C@@H]1O [cytochalasin-B]
HaCaT cells
  effect of actin cytoskeleton modifier on rate of PIU of dextran-FITC: doubled

## C/C1=C/C(=O)O[C@@H]2C[C@@H](CC[C@H](C)/C=C\C=C\CC1)O[C@@](O)([C@@H]1CSC(=O)N1)C2 [latrunculin-A]
HaCaT cells
  effect of actin cytoskeleton modifier on rate of PIU of dextran-FITC: only small PIU enhancement

## lucifer yellow
HaCaT cells; pH 5.2 vs pH 7.4, 5 minutes, 25 μM
  extent of PIU compared with fluorescein and dextran: lesser extent of PIU
